Results: ChEMBL document CHEMBL1201862, “PubChem BioAssay data set” (2004)
Active and inactive are the calls of the source.

How the values were obtained:
[1] = MITF Orthogonal Assay: SK-MEL-5 CTG Assay Measured in Cell-Based System Using Plate Reader - 2084-02_Inhibitor_Dose_DryPowder_Activity_Set5.; assay type: functional
[2] = SK-MEL-5 parental cell viability reduction, dose response, orthogonal assay for MITF inhibitor project, CellTiter-Glo luminescence, dry powder, set 8 (AID 651586); assay type: functional, cell-based
[3] = biological target: Induced myeloid leukemia cell differentiation protein Mcl-1 (Homo sapiens, UniProt Q07820); assay type: functional
Induced myeloid leukemia cell differentiation protein Mcl-1, sequence (Q07820 whole entry): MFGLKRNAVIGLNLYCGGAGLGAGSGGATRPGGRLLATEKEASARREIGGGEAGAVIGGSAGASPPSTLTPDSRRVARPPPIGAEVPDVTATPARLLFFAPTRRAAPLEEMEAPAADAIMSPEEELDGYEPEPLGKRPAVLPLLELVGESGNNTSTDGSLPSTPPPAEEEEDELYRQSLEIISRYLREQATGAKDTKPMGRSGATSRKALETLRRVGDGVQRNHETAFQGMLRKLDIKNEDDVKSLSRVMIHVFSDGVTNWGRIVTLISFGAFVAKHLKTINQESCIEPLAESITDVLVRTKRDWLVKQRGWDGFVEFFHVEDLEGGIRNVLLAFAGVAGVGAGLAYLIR

[4] = biological target: T1, Alkaline phosphatase, tissue-nonspecific isozyme (Homo sapiens, UniProt P05186); assay: TNAP enzyme activators, dose response, selectivity assay for mouse IAP activator project, biochemical, TNAP isozyme, mouse IAP uHTS hits (AID 488880); assay type: functional
T1 sequence (P05186 whole entry): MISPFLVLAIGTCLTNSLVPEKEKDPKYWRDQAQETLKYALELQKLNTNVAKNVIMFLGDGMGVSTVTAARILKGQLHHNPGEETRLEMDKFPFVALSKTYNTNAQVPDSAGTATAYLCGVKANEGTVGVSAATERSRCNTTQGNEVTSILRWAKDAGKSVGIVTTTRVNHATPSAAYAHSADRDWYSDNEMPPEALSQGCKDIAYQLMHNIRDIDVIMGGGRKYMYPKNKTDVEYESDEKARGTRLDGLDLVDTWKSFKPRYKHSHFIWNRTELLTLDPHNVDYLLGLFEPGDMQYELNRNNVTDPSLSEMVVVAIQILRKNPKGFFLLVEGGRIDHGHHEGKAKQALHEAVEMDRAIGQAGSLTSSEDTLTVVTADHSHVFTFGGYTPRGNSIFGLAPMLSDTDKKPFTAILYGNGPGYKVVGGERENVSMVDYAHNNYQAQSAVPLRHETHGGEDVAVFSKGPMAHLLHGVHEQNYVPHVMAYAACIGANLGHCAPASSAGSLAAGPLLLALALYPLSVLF

[5] = biological target: T2, Rac GTPase-activating protein 1 (Homo sapiens, UniProt Q9H0H5); assay: MgcRacGAP GTPase-activating activity inhibitors, confirmation, biochemical, ADP Hunter fluorescence, primary and confirmatory (AID 624330); assay type: functional
T2 sequence (Q9H0H5 whole entry): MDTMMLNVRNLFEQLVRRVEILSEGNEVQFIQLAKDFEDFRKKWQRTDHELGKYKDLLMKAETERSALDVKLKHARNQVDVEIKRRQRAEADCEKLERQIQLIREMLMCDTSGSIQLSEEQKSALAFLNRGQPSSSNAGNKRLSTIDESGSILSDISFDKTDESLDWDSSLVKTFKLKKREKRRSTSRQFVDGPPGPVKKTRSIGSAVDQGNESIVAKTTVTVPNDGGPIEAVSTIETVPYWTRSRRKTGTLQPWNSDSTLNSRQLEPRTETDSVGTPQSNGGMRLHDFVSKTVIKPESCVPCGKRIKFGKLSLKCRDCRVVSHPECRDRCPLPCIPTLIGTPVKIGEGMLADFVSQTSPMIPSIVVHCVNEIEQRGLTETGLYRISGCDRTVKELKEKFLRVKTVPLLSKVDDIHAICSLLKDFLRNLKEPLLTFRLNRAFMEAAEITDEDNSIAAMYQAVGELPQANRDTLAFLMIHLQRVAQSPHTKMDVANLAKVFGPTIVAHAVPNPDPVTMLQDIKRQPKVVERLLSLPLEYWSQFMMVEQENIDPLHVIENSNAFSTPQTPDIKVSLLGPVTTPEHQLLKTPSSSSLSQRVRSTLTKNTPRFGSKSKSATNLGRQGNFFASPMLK

[6] = system: Streptococcus; assay: Group A Streptococcus viability loss, dose response, counter-screen for streptokinase expression inhibitor project, luminescence, BacTiterGlo (AID 1915); assay type: functional, organism-based;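 further: potency for reduction of bacterial viability or growth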
[7] = system: CHO-K1; assay: Counterscreen for antagonists of the orexin 1 receptor (OX1R; HCRTR1): Homogeneous time resolved fluorescence (HTRF)-based cell-based dose response assay to identify antagonists of the parental CHO-K1 cell line. [Related pubchem assays (depositor defined):AID434989, AID435008, AID463079, AID485270, AID492963, AID492964, AID492965, AID493232, AID504699, AID504701]; assay type: functional; conditions: Cricetulus griseus;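 further: potency for inhibition of ATP-stimulated IP1 production as antagonists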
[8] = biological target: Dual specificity tyrosine-phosphorylation-regulated kinase 4 (Homo sapiens, UniProt Q9NR20); assay type: functional
Dual specificity tyrosine-phosphorylation-regulated kinase 4, sequence (Q9NR20 whole entry): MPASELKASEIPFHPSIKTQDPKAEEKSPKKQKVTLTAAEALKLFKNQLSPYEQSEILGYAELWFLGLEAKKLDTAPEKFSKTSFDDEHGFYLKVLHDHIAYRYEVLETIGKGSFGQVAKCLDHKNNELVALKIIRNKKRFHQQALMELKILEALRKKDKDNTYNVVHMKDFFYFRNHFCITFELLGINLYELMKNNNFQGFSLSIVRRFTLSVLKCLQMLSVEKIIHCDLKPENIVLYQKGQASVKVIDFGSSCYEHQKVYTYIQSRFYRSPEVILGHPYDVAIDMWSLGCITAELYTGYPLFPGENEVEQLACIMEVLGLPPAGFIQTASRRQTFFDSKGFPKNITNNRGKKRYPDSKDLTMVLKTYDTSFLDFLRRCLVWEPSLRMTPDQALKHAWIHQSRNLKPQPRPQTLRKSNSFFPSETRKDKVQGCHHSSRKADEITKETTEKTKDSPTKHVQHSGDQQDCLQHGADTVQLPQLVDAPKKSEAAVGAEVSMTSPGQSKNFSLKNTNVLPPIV

[9] = biological target: Tyrosine-protein kinase SYK (Homo sapiens, UniProt P43405); assay type: functional
[10] = biological target: Serine/threonine-protein kinase PAK 4 (Homo sapiens, UniProt O96013); assay type: functional;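 further: value obtained within a kinome profiling panel in which PAK4 was one of the panel members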
Serine/threonine-protein kinase PAK 4, sequence (O96013 whole entry): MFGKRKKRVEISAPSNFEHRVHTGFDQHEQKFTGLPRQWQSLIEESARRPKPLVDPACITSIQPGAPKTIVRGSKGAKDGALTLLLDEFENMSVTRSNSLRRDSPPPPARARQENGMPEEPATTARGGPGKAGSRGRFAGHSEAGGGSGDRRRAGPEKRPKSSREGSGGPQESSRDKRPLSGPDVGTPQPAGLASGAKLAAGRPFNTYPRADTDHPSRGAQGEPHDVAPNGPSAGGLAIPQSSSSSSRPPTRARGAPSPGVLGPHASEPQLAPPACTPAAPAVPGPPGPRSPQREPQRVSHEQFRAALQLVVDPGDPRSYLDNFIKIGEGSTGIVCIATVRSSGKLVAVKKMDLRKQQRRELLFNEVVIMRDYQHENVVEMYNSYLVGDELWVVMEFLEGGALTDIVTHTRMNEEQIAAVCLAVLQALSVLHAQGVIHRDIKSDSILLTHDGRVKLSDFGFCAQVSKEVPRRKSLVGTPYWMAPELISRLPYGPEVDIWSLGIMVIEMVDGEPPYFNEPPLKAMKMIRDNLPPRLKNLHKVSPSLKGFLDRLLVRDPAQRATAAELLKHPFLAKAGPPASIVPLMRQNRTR

[11] = biological target: Dual specificity mitogen-activated protein kinase kinase 1 (Homo sapiens, UniProt Q02750); assay: Navigating the Kinome. Panel member name: MAP2K1; assay type: functional
Dual specificity mitogen-activated protein kinase kinase 1, sequence (Q02750 whole entry): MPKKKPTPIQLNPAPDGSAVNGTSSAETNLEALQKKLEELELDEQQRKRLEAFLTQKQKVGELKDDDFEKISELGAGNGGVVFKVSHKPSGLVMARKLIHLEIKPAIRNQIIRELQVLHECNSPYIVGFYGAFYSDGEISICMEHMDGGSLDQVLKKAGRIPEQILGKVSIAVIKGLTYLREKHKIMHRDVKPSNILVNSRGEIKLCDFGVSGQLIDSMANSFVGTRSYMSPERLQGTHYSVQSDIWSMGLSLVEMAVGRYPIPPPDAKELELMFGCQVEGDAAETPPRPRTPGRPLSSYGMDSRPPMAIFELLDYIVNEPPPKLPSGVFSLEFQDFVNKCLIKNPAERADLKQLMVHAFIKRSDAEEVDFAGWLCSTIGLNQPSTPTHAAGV

[12] = biological target: Fibroblast growth factor receptor 3 (Homo sapiens, UniProt P22607); assay type: functional
Fibroblast growth factor receptor 3, sequence (P22607 whole entry): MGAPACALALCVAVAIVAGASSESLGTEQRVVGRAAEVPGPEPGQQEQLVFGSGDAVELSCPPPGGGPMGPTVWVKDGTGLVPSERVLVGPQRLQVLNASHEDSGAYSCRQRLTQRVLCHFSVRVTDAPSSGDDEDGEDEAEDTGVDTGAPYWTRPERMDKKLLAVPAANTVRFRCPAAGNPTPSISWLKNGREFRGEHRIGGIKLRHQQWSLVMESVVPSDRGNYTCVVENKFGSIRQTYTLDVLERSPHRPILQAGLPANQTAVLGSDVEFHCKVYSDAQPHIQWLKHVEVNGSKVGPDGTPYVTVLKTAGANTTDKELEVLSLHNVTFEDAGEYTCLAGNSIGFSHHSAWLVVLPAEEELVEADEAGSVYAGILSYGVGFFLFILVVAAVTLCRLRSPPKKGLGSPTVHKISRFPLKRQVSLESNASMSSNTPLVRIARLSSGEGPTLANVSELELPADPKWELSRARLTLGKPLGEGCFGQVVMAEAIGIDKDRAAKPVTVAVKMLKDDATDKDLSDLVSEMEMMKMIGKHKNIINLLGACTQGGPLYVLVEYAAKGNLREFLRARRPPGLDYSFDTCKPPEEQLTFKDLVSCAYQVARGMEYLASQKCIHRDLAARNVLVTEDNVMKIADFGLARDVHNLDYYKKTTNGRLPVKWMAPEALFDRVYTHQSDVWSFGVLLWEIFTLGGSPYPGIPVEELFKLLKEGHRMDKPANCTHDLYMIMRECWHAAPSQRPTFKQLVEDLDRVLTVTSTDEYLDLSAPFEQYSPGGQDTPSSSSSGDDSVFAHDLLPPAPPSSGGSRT

[13] = biological target: Casein kinase II subunit alpha (Homo sapiens, UniProt P68400); assay type: functional
Casein kinase II subunit alpha, sequence (P68400 whole entry, canonical isoform): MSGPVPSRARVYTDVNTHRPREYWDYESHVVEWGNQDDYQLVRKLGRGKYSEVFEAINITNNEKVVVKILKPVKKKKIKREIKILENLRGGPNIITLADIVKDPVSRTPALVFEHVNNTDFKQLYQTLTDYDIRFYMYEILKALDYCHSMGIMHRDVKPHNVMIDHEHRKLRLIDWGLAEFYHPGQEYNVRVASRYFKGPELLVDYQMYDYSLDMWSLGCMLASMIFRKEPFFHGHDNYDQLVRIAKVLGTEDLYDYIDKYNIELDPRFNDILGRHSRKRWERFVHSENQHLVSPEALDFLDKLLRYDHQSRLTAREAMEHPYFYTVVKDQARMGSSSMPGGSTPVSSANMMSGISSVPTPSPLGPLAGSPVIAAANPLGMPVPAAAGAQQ

[14] = biological target: Casein kinase I isoform gamma-1 (Homo sapiens, UniProt Q9HCP0); assay type: functional;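 further: measured as the CSNK1G1 member of a kinome profiling panel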
Casein kinase I isoform gamma-1, sequence (Q9HCP0 whole entry, canonical isoform): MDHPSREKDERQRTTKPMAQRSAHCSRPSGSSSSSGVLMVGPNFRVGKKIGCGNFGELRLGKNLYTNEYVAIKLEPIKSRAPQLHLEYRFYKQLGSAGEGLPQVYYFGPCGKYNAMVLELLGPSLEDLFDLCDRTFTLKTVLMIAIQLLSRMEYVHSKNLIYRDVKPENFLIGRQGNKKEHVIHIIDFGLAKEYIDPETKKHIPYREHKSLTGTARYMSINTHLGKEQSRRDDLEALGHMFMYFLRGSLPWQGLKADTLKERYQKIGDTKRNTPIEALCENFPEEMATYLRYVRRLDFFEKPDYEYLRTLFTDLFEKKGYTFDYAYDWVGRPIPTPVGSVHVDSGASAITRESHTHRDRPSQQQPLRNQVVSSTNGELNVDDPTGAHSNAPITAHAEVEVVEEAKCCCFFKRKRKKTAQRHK

[15] = biological target: Vascular endothelial growth factor receptor 1 (Homo sapiens, UniProt P17948); assay type: functional;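 further: measured within a kinome-wide profiling panel, FLT1 as the panel member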
[16] = biological target: Interleukin-1 receptor-associated kinase 4 (Homo sapiens, UniProt Q9NWZ3); assay type: functional
[17] = biological target: MAP kinase-interacting serine/threonine-protein kinase 2 (Homo sapiens, UniProt Q9HBH9); assay type: functional
MAP kinase-interacting serine/threonine-protein kinase 2, sequence (Q9HBH9 whole entry): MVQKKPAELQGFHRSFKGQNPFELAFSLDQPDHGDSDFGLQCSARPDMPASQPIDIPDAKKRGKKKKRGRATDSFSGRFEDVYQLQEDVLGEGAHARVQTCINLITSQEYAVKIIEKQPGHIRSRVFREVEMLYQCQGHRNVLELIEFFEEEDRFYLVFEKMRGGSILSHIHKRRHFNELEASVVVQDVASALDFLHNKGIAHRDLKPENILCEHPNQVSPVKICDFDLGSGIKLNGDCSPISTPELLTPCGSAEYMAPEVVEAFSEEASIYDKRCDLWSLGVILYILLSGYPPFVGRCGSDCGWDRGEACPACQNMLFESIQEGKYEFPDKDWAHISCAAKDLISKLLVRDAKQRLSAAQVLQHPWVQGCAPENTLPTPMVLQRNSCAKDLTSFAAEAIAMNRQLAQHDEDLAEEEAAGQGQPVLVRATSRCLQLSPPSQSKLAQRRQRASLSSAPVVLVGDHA

[18] = biological target: Protein kinase C gamma type (Homo sapiens, UniProt P05129); assay type: functional
[19] = biological target: Activated CDC42 kinase 1 (Homo sapiens, UniProt Q07912); assay: Navigating the Kinome. Panel member name: ACK1; assay type: functional
[20] = biological target: Protein kinase C zeta type (Homo sapiens, UniProt Q05513); assay type: functional;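 further: measured as one member of a broad kinase profiling panel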

With `C=CCNC1=C(Cl)C(=O)c2ccccc2C1=O` the AC50 [1] was 1700 nM (active) and the AC50 [2] was 4580 nM (active).
For `CS(=O)(=O)c1ccc2c(c1)SC1=NC(=O)/C(=C/c3ccc(O)c(O)c3)C(=N)N12`, the IC50 [3] was 5260 nM (active), the EC50 [4] was 77500 nM (active) and the IC50 [5] was 38100 nM (active).
For `CCOC(=O)C(C(=O)OCC)c1cc(Br)c2noc3c2c1C(=O)c1ccccc1-3`, the EC50 [6] was > 150000 nM (not active).
With `CN(C)c1ccc(-c2nnc(-c3cccs3)o2)cc1` the IC50 [7] was > 66200 nM (inactive).
In the case of `COc1ccc(C(=O)Nc2n[nH]c3ccc(-c4cn(Cc5ccccc5)nn4)cc23)cc1OC`, the Ki [8] is reported as 6310 nM (active), the Ki [9] is reported as 20 nM (active) and the Ki [10] is reported as 501 nM (active). The Ki [11] was 1260 nM (active), the Ki [12] was 158 nM (active) and the Ki [13] was 15.8 nM (active). For the same compound, the Ki [14] was 25.1 nM (active), the Ki [15] was 200 nM (active) and the Ki [16] was 2510 nM (active). For the same compound, the Ki [17] was 3160 nM (active), the Ki [18] was 126 nM (active) and the Ki [19] was > 3980 nM (inactive). For the same compound, the Ki [20] was > 7940 nM (inactive).
